According to US20100298141A1, “SUBSTITUTED PYRIDINE N-OXIDE HERBICIDES” (E. I. DU PONT DE NEMOURS AND COMPANY, priority 2007, published 2010):

Legend:
morningglory [1] = experiment: Test A pre-/postemergence greenhouse test; assay type: in vivo, Ipomoea spp.; conditions: for Morningglory plant response rating: 0 to 100 scale; for Plant response rating, Morningglory: 0 to 100 scale where 0 is no effect and 100 is complete control
Method in brief: (§1)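 Each test compound, dissolved in a non-phytotoxic solvent mixture with surfactant, was sprayed directly onto seeded soil (loam/sand blend) and, at the same moment, onto seedlings carrying one to two leaves. Around ten greenhouse days later, plants were rated visually for injury relative to untreated controls.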

redroot pigweed = experiment: Test A pre-/postemergence greenhouse test; assay type: in vivo, Amaranthus retroflexus; conditions: for Pigweed plant response rating: 0 to 100 scale; for Plant response rating, Pigweed: 0 to 100 scale where 0 is no effect and 100 is complete control
Method in brief: as §1

corn [2] = experiment: Test A pre-/postemergence greenhouse test; assay type: in vivo, Zea mays; conditions: for Corn plant response rating: 0 to 100 scale; for Plant response rating, Corn: 0 to 100 scale where 0 is no effect and 100 is complete control
Method in brief: as §1

Italian ryegrass = experiment: Test C pre-/postemergence test; assay type: in vivo, Lolium multiflorum; conditions: Postemergence; for Plant response rating, Ryegrass, Italian: scale 0 to 100, 0 no effect, 100 complete control
Description: (§2) Seeds of plant species selected from blackgrass (Alopecurus myosuroides), downy brome (Bromus tectorum), green foxtail (Setaria viridis), Italian ryegrass (Lolium multiflorum), wheat (Triticum aestivum), wild oat (Avena fatua), catchweed bedstraw (Galium aparine), Russian thistle (Salsola kali), […] (Cynodon dactylon), Surinam grass (Brachiaria decumbens), cocklebur (Xanthium strumarium), corn (Zea mays), crabgrass (Digitaria sanguinalis), woolly cupgrass (Eriochloa villosa), giant foxtail (Setaria faberii), Goosegrass (Eleusin indica), johnsongrass (Sorghum halepense), kochia (Kochia scoparia), lambsquarters (Chenopodium album), morningglory (Ipomoea coccinea), eastern black nightshade (Solanum ptycanthum), yellow nutsedge (Cyperus esculentus), pigweed (Amaranthus retroflexus), common ragweed (Ambrosia elation), soybean (Glycine max), common (oilseed) sunflower (Helianthus annuus), and velvetleaf (Abutilon theophrasti) were planted and treated preemergence with test chemicals formulated in a non-phytotoxic solvent mixture which included a surfactant. At the same time, plants selected from these crop and weed species and also winter barley (Hordeum vulgare), canarygrass (Phalaris minor), and chickweed (Stellaria media) were treated with postemergence applications of some of the test chemicals formulated in the same manner. Plants ranged in height from 2 to 18 cm (1- to 4-leaf stage) for postemergence treatments. […] At time of treatment, test pots were flooded to 3 cm above the soil surface, treated by application of test compounds directly to the paddy water, and then maintained at that water depth for the duration of the test. […] A dash (-) response means no test result.

wheat = experiment: Test C pre-/postemergence test; assay type: in vivo, Triticum aestivum; conditions: Postemergence; for Plant response rating, Wheat: scale 0 to 100, 0 no effect, 100 complete control
Description: as §2

wild oat = experiment: Test C pre-/postemergence test; assay type: in vivo, Avena fatua; conditions: Postemergence; for Plant response rating (0 to 100), Oat, Wild: 31 g ai/ha; for Plant response rating, Oat, Wild: scale 0 to 100, 0 no effect, 100 complete control
Description: as §2

bermudagrass = experiment: Test C pre-/postemergence test; assay type: in vivo, Cynodon dactylon; conditions: Postemergence; for Plant response rating (0 to 100), Bermudagrass: 31 g ai/ha; for Plant response rating, Bermudagrass: scale 0 to 100, 0 no effect, 100 complete control
Description: as §2

cocklebur = experiment: Test C pre-/postemergence test; assay type: in vivo, Xanthium strumarium; conditions: Postemergence; for Plant response rating (0 to 100), Cocklebur: 31 g ai/ha; for Plant response rating, Cocklebur: scale 0 to 100, 0 no effect, 100 complete control
Description: as §2

corn [3] = experiment: Test C pre-/postemergence test; assay type: in vivo, Zea mays; conditions: Postemergence; for Plant response rating (0 to 100), Corn: 31 g ai/ha; for Plant response rating, Corn: scale 0 to 100, 0 no effect, 100 complete control
Description: as §2

giant foxtail = experiment: Test C pre-/postemergence test; assay type: in vivo, Setaria faberii; conditions: Postemergence; for Plant response rating (0 to 100), Foxtail, Giant: 31 g ai/ha; for Plant response rating, Foxtail, Giant: scale 0 to 100, 0 no effect, 100 complete control
Description: as §2

johnsongrass = experiment: Test C pre-/postemergence test; assay type: in vivo, Sorghum halepense; conditions: Postemergence; for Plant response rating (0 to 100), Johnsongrass: 31 g ai/ha; for Plant response rating, Johnsongrass: scale 0 to 100, 0 no effect, 100 complete control
Description: as §2

kochia = experiment: Test C pre-/postemergence test; assay type: in vivo, Kochia scoparia; conditions: Postemergence; for Plant response rating (0 to 100), Kochia: 31 g ai/ha; for Plant response rating, Kochia: scale 0 to 100, 0 no effect, 100 complete control
Description: as §2

morningglory [4] = experiment: Test C pre-/postemergence test; assay type: in vivo, Ipomoea coccinea; conditions: Postemergence; for Plant response rating (0 to 100), Morningglory: 31 g ai/ha; for Plant response rating, Morningglory: scale 0 to 100, 0 no effect, 100 complete control
Description: as §2

yellow nutsedge = experiment: Test C pre-/postemergence test; assay type: in vivo, Cyperus esculentus; conditions: Postemergence; for Plant response rating (0 to 100), Nutsedge, Yellow: 31 g ai/ha; for Plant response rating, Nutsedge, Yellow: scale 0 to 100, 0 no effect, 100 complete control
Description: as §2

rice = experiment: Test C flooded paddy test; assay type: in vivo, Oryza sativa; conditions: Flood
Method in brief: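 Flooded 3 cm over soil; compound into paddy water; depth kept constant. Greenhouse 13–15 d.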

[5] = Postemergence, 125 g ai/ha, 0 is no effect, 100 is complete control
[6] = Postemergence, 500 g ai/ha, 0 is no effect, 100 is complete control
[7] = Preemergence, 125 g ai/ha, 0 no effect, 100 complete control
[8] = 250 g ai/ha, scale 0 to 100, 0 no effect, 100 complete control, 13 to 15 days

CC(c1c(C(F)(F)F)nn(C)c1Cl)S(=O)(=O)c1ccc(Cl)c[n+]1[O-] (racemic) [Compound 40]
100: Plant response rating, Pigweed (redroot pigweed; Preemergence, 500 g ai/ha)
80: Plant response rating, Morningglory (morningglory [1]; Preemergence, 500 g ai/ha)
45: Plant response rating, Ryegrass, Italian (Italian ryegrass; 250 g ai/ha)
30: Morningglory plant response rating (morningglory [1]; [6]) | Pigweed plant response rating (redroot pigweed; [5]) | Plant response rating, Bermudagrass (bermudagrass; 250 g ai/ha)
60: Pigweed plant response rating (redroot pigweed; [6]) | Pigweed plant response rating (redroot pigweed; [7]) | Plant response rating, Johnsongrass (johnsongrass; 250 g ai/ha) | Plant response rating, Rice (rice; 125 g ai/ha, scale 0 to 100, 0 no effect, 100 complete control, 13 to 15 days)
65: Plant response rating, Rice (rice; [8])
5: Plant response rating, Wheat (wheat; 250 g ai/ha) | Plant response rating, Oat, Wild (wild oat; 250 g ai/ha)
40: Corn plant response rating (corn [2]; [6]) | Plant response rating, Ryegrass, Italian (Italian ryegrass; 125 g ai/ha)
0: Morningglory plant response rating (morningglory [1]; [5]) | Morningglory plant response rating (morningglory [1]; [7]) | Corn plant response rating (corn [2]; [5]) | Corn plant response rating (corn [2]; [7]) | Plant response rating, Corn (corn [2]; Preemergence, 500 g ai/ha) | Plant response rating (0 to 100), Ryegrass, Italian (Italian ryegrass; 31 g ai/ha) | Plant response rating (0 to 100), Ryegrass, Italian (Italian ryegrass; 62 g ai/ha) | Plant response rating (0 to 100), Wheat (wheat; 31 g ai/ha) | Plant response rating (0 to 100), Wheat (wheat; 62 g ai/ha) | Plant response rating, Wheat (wheat; 125 g ai/ha) | Plant response rating (0 to 100), Oat, Wild (wild oat) | Plant response rating, Oat, Wild (wild oat; 62 g ai/ha) | Plant response rating, Oat, Wild (wild oat; 125 g ai/ha) | Plant response rating (0 to 100), Bermudagrass (bermudagrass) | Plant response rating, Bermudagrass (bermudagrass; 62 g ai/ha) | Plant response rating (0 to 100), Cocklebur (cocklebur) | Plant response rating, Cocklebur (cocklebur; 62 g ai/ha) | Plant response rating, Cocklebur (cocklebur; 125 g ai/ha) | Plant response rating, Cocklebur (cocklebur; 250 g ai/ha) | Plant response rating (0 to 100), Corn (corn [3]) | Plant response rating, Corn (corn [3]; 62 g ai/ha) | Plant response rating, Corn (corn [3]; 125 g ai/ha) | Plant response rating, Corn (corn [3]; 250 g ai/ha) | Plant response rating (0 to 100), Foxtail, Giant (giant foxtail) | Plant response rating, Foxtail, Giant (giant foxtail; 62 g ai/ha) | Plant response rating, Foxtail, Giant (giant foxtail; 125 g ai/ha) | Plant response rating, Foxtail, Giant (giant foxtail; 250 g ai/ha) | Plant response rating (0 to 100), Johnsongrass (johnsongrass) | Plant response rating (0 to 100), Kochia (kochia) | Plant response rating, Kochia (kochia; 62 g ai/ha) | Plant response rating, Kochia (kochia; 125 g ai/ha) | Plant response rating, Kochia (kochia; 250 g ai/ha) | Plant response rating (0 to 100), Morningglory (morningglory [4]) | Plant response rating, Morningglory (morningglory [4]; 62 g ai/ha) | Plant response rating, Morningglory (morningglory [4]; 125 g ai/ha) | Plant response rating, Morningglory (morningglory [4]; 250 g ai/ha) | Plant response rating (0 to 100), Nutsedge, Yellow (yellow nutsedge) | Plant response rating, Nutsedge, Yellow (yellow nutsedge; 62 g ai/ha) | Plant response rating, Nutsedge, Yellow (yellow nutsedge; 125 g ai/ha) | Plant response rating, Nutsedge, Yellow (yellow nutsedge; 250 g ai/ha) | Plant response rating, Rice (rice; 31 g ai/ha, scale 0 to 100 (0 no effect, 100 complete control))
20: Plant response rating, Johnsongrass (johnsongrass; 62 g ai/ha) | Plant response rating, Johnsongrass (johnsongrass; 125 g ai/ha)
15: Plant response rating, Rice (rice; 62 g ai/ha, scale 0 to 100, 0 no effect, 100 complete control, 13 to 15 days)
10: Plant response rating, Bermudagrass (bermudagrass; 125 g ai/ha)

CCn1nc(C(F)(F)F)c(C(C)S(=O)(=O)c2cccc[n+]2[O-])c1OCC(F)(F)F (stereo not shown) [Compound 69]
70: Morningglory plant response rating (morningglory [1]; [6]) | Pigweed plant response rating (redroot pigweed; [7]) | Plant response rating, Rice (rice; [8])
30: Plant response rating, Pigweed (redroot pigweed; Postemergence, 125 g ai/ha)
90: Pigweed plant response rating (redroot pigweed; [6]) | Plant response rating, Oat, Wild (wild oat; 250 g ai/ha)
95: Plant response rating, Ryegrass, Italian (Italian ryegrass; 250 g ai/ha)
80: Corn plant response rating (corn [2]; [6]) | Plant response rating, Corn (corn [2]; Preemergence, 500 g ai/ha)
60: Plant response rating, Corn (corn [2]; Postemergence, 125 g ai/ha) | Plant response rating, Foxtail, Giant (giant foxtail; 250 g ai/ha)
40: Plant response rating, Morningglory (morningglory [1]; Postemergence, 125 g ai/ha) | Plant response rating (0 to 100), Ryegrass, Italian (Italian ryegrass; 62 g ai/ha) | Plant response rating, Johnsongrass (johnsongrass; 250 g ai/ha) | Plant response rating, Rice (rice; 62 g ai/ha, scale 0 to 100 (0 no effect, 100 complete control))
0: Corn plant response rating (corn [2]; [7]) | Plant response rating (0 to 100), Ryegrass, Italian (Italian ryegrass; 31 g ai/ha) | Plant response rating (0 to 100), Wheat (wheat; 31 g ai/ha) | Plant response rating (0 to 100), Wheat (wheat; 62 g ai/ha) | Plant response rating (0 to 100), Oat, Wild (wild oat) | Plant response rating, Oat, Wild (wild oat; 62 g ai/ha) | Plant response rating, Oat, Wild (wild oat; 125 g ai/ha) | Plant response rating (0 to 100), Bermudagrass (bermudagrass) | Plant response rating, Bermudagrass (bermudagrass; 62 g ai/ha) | Plant response rating, Bermudagrass (bermudagrass; 125 g ai/ha) | Plant response rating (0 to 100), Cocklebur (cocklebur) | Plant response rating, Cocklebur (cocklebur; 62 g ai/ha) | Plant response rating, Cocklebur (cocklebur; 125 g ai/ha) | Plant response rating, Cocklebur (cocklebur; 250 g ai/ha) | Plant response rating (0 to 100), Corn (corn [3]) | Plant response rating, Corn (corn [3]; 62 g ai/ha) | Plant response rating, Corn (corn [3]; 125 g ai/ha) | Plant response rating, Corn (corn [3]; 250 g ai/ha) | Plant response rating (0 to 100), Foxtail, Giant (giant foxtail) | Plant response rating, Foxtail, Giant (giant foxtail; 62 g ai/ha) | Plant response rating, Foxtail, Giant (giant foxtail; 125 g ai/ha) | Plant response rating (0 to 100), Johnsongrass (johnsongrass) | Plant response rating, Johnsongrass (johnsongrass; 62 g ai/ha) | Plant response rating (0 to 100), Kochia (kochia) | Plant response rating, Kochia (kochia; 62 g ai/ha) | Plant response rating, Kochia (kochia; 125 g ai/ha) | Plant response rating, Kochia (kochia; 250 g ai/ha) | Plant response rating (0 to 100), Morningglory (morningglory [4]) | Plant response rating, Morningglory (morningglory [4]; 62 g ai/ha) | Plant response rating, Morningglory (morningglory [4]; 125 g ai/ha) | Plant response rating, Morningglory (morningglory [4]; 250 g ai/ha) | Plant response rating (0 to 100), Nutsedge, Yellow (yellow nutsedge) | Plant response rating, Nutsedge, Yellow (yellow nutsedge; 62 g ai/ha) | Plant response rating, Nutsedge, Yellow (yellow nutsedge; 125 g ai/ha) | Plant response rating, Nutsedge, Yellow (yellow nutsedge; 250 g ai/ha)
100: Plant response rating, Morningglory (morningglory [1]; Preemergence, 500 g ai/ha) | Plant response rating, Pigweed (redroot pigweed; Preemergence, 500 g ai/ha)
50: Morningglory plant response rating (morningglory [1]; [7]) | Plant response rating, Ryegrass, Italian (Italian ryegrass; 125 g ai/ha) | Plant response rating, Wheat (wheat; 250 g ai/ha) | Plant response rating, Bermudagrass (bermudagrass; 250 g ai/ha)
20: Plant response rating, Wheat (wheat; 125 g ai/ha) | Plant response rating, Johnsongrass (johnsongrass; 125 g ai/ha)
